Values after ≈ are worked out from the molar mass of the structure shown.
Assays:
[1] = Intrinsic clearance in mouse liver microsomes; assay type: in vitro ADME
Method: page 13: 4. Parasite assays T. cruzi4, Leishmania donovani axenic amastigote, cidal axenic amastigote and intra- macrophage drug sensitivity assays were conducted as previously described5,6. a. […] Instead of a single readout at 72 h, multiple identical plates were used and read at different time points (24, 48, 72 h). Rate of kill curves showing the luminescence signal at each time point for each concentration were plotted. 5. […] The rate of intrinsic clearance (CLint) of each test compound was then calculated using the following calculation: CLint(mL/min/g liver) = k x V x Microsomal protein yield Where V (mL/mg protein) is the incubation volume/mg protein added and microsomal protein yield is taken as 52.5 mg protein/g liver. Verapamil (0.5 μM) was used as a positive control to confirm acceptable assay performance. 6. Pharmacokinetic studies. a. Mouse and dog PK Mouse pharmacokinetic studies were conducted in male CD-1 mice and male beagle dogs. 3 animals per group were used for each study performed. A dose of 3 mg/kg was administered intravenously, in a bolus form to mice and infused over a 30 min period to dogs. For all the intravenous studies compound were dissolved in 5% DMSO/20% kleptose in saline. A dose of 10 mg/kg was orally administered by gavage to the two species in a suspension of 1% methylcellulose to investigate oral pharmacokinetics. S13

[2] = Solubility in fasted simulated intestinal fluid (FaSSIF); details: fasted simulated intestinal fluid (FaSSIF), fassif
[3] = CAD (charged aerosol detector) solubility
[4] = system: L. donovani intramacrophage amastigotes; test: L. donovani intramacrophage assay (amastigotes in differentiated THP-1 cells); assay type: cell-based, Leishmania donovani; details: Leishmania donovani; L. donovani amastigotes in differentiated THP-1 cells; read-out: Intramacrophage EC50
Method: T. cruzi4, Leishmania donovani axenic amastigote, cidal axenic amastigote and intra-
macrophage drug sensitivity assays were conducted as previously described5,6. […]
5. Intrinsic clearance (CLint) […]
6. Pharmacokinetic studies. […]

[5] = system: L. donovani promastigotes; test: microbe, parasite or virus in culture; assay type: cell-based, Leishmania donovani
Method: 9. Mode of action studies a. Cell lines and culture conditions […]
c. Generation of drug-resistant parasites […]
donovani in the continuous presence of this compound. Starting at a sub-lethal […]
After a total of 120 days in
Genomic DNA was harvested from three independently generated L. donovani resistant clones and an age match control, as previously described27. PCR was performed using Platinum PCR Supermix (Invitrogen), as per manufacturer’s […]
generated using primers SubunitB4FW and SubunitB4RV, then sequenced using primer SubunitB4FW (Table S6). To sequence the β5 subunit (LdBPK_361730.1), an […]
sequenced using primer SubunitB5FW. PCR amplification and DNA sequencing were performed in triplicate for each independently generated cell line. The Leishmania donovani BPK282A1 sequences of the two subunits were identified in TriTrypDB and […]
e. Generation of overexpression constructs and LdBOB transgenic cell lines The genes encoding the mutated versions of the β4 (LdBPK_360340.1) and the β5 […]
parasites, were synthesised (GeneArt, Thermo Fischer Scientific). The synthetic genes, flanked by BamHI sites were cloned into the equivalent site of pIR1-SAT. The accuracy of all assembled constructs was verified by sequencing.
Mid-log-phase L. donovani promastigotes (LdBOB) were transfected with overexpression constructs using the Human T-Cell Nucleofector kit and the Amaxa Nucleofector electroporator (program V-033). Following transfection, cells were […]
to appropriate drug selection (100 µg/mL nourseothricin). Cloned cell lines were […]
selection for one passage prior to experiments. […]

THP-1 cells = test: Mammalian cell growth inhibition (THP-1); assay type: cell-based; details: Homo sapiens
Excerpt: We hypothesized that, in view of their structural similarity, 1 and 2 probably shared the same mechanism of action.

[6] = system: L. donovani axenic amastigotes; test: Axenic amastigote rate-of-kill assay; assay type: cell-based, Leishmania donovani
Method: T. cruzi4, Leishmania donovani axenic amastigote, cidal axenic amastigote and intra-macrophage drug sensitivity assays were conducted as previously described5,6.
The rate of kill of compound 8 was determined in axenic amastigotes using the previously described cidal axenic assay5, with one minor modification. Instead of a single readout at 72 h, multiple identical plates were used and read at different time points (24, 48, 72 h). Rate of kill curves showing the luminescence signal at each time point for each concentration were plotted.
5. Intrinsic clearance (CLint)
Test compound (0.5 µM) was incubated with female CD1 mouse liver microsomes (Xenotech LLC TM; 0.5 mg/mL 50 mM potassium phosphate buffer, pH7.4) and the reaction started with addition of excess NADPH (8 mg/mL 50 mM potassium phosphate buffer, pH7.4). Immediately, at time zero, then at 3, 6, 9, 15 and 30 minutes an aliquot (50 µL) of the incubation mixture was removed and mixed with acetonitrile (100 µL) to stop the reaction. […]
XLfit (idbs, UK) was used to calculate the exponential decay and consequently the rate constant (k) from the ratio of peak area of test compound to internal standard at each time-point. The rate of intrinsic clearance (CLint) of each test compound was then calculated using the following calculation: […]
Amastigote levels (as RLU, relative luminescence units) for each tested concentration plotted against time. […]

[7] = Leishmania donovani, RES II-resistant cells
[8] = Leishmania donovani, WT promastigotes

Compound | CLint [1] [mL/min/g] | solubility [2] [µg/mL] | solubility [3] [µg/mL] | EC50 [4] [nM] | EC50 [5, 7] [nM] | EC50 [5, 8] [nM] | EC50 ([5]; Leishmania donovani, WT, overexpression experiment (Fig. 3D)) [nM] | EC50 ([5]; Leishmania donovani, β4MUT cells (overexpressing β4 T30A)) [nM] | EC50 ([5]; Leishmania donovani, β5MUT cells (overexpressing β5 G197C)) [nM] | resistance of compound 7-resistant clones ([5]; resistant clones vs WT) [fold] | reduction of susceptibility on overexpression of mutated β5 subunit ([5]; β5 G197C overexpression vs WT) | EC50 (THP-1 cells) [nM] | CLint (intrinsic clearance when incubated with mouse liver microsomes) [1] [mL/min per gram] | minimum concentration inducing parasite cell death ([6]; after 72 h) [nM] | time to kill ([6]; as compound concentrations were increased) [h] | EC50 ([5]; WT promastigotes) [nM]
O=C(Nc1ccc(F)c(-c2cn3nc(-c4ccccc4)cnc3n2)c1)N1CCCC1 [Compound 7] | 1.7 | 1 (≈ 2.48 µM) | 7 (≈ 17.4 µM) | 350 | > 1000 | 3.5 ± 0.09 | 9.4 ± 0.14 | 11.2 ± 0.2 | 37.6 ± 0.6 | > 100 | fourfold | > 50000 |  |  |  | 
O=C(Nc1ccc(F)c(-c2ccn3c(N4CCOCC4)cnc3n2)c1)N1CCCC1 [Compound 8] | 0.77 | 180 (≈ 439 µM) | 231 (≈ 563 µM) | 1600 | > 1000 | 14.6 ± 0.3 |  |  |  |  |  | > 50000 | 0.8 | 620 | 48 | 14

From article PMC6511062, “Preclinical candidate for the treatment of visceral leishmaniasis that acts through proteasome inhibition” (Proceedings of the National Academy of Sciences of the …, 2019)
